Read-outs that look alike come from different tables or passages of the source.
Key:
[1] = target: T1, human estradiol (E) receptor (Homo sapiens, UniProt P03372); type: binding
T1 construct: present in human breast tumor cells (MCF-7 cells); endogenous in cells; host or cells: MCF-7 human breast tumor cells
T1 sequence (P03372 1-595): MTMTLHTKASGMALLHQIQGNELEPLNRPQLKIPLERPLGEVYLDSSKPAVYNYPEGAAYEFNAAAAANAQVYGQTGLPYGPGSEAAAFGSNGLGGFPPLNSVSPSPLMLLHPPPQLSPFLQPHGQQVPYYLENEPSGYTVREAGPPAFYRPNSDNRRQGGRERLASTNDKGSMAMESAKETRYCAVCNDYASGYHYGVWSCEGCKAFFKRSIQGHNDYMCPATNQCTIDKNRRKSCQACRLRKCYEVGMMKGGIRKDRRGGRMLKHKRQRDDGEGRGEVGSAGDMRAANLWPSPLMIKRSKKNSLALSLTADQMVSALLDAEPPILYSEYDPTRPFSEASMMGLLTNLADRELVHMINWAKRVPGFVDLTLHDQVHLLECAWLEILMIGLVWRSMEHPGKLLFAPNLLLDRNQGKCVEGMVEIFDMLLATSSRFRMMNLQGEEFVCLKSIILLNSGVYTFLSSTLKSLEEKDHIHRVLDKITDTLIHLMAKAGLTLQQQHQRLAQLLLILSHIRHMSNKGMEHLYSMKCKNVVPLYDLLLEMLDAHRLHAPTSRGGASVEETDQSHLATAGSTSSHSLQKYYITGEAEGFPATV
Experimental: The relative estradiol receptor binding affinity was measured in the same manner as described above but using 17βestradiol as a reference.
(§1) Several of the compounds according to the Examples I-VI, as well as other compounds according to the invention synthesized in analogous manner, were subjected to the tests described in the Examples VII and VIII. The results are described in the Table, in which the type of A-ring and the substitution at carbon atoms nos. 7, 11, and 17 is indicated. In the columns captioned E and P, the relative binding affinities for the estrogen and progesterone receptors are given; the ED50 results of the AllenDoisy and the McPhail tests have been indicated in μg/kg. In the column captioned "Osteoporosis", the ED50 results of the anti-osteoporosis test are given (dose in μg/kg, day, as described above).

[2] = test system: human progesterone (P) receptor; assay: Relative progesterone receptor binding affinity, cytoplasmic receptors of MCF-7 cells; settings: relative to (16α)-16-ethyl-21-hydroxy-19-norpregn-4-ene-3,20-dione, 16 h, 4° C
[3] = Allen Doisy test for estrogenic activity in vivo; settings: read-out: AllenDoisy ED50
[4] = McPhail test for progestagenic activity in vivo; settings: read-out: McPhail ED50
[5] = test system: ovariectomised rats; assay: Prevention of ovariectomy-induced bone loss in rats (anti-osteoporosis test, pQCT trabecular bone mineral density); type: in vivo, rat (female Wistar); settings: Rattus norvegicus, 672 h, read-out: Osteoporosis ED50
Description: Ovariectomy induces in rats bone loss, which is due to oestrogen deficiency. Administration of oestrogenic compounds prevents this effect. The test is used to evaluate a compound for anti-osteoporotic activity in ovariectomised rats. The effect on bone mass can be evaluated by peripheral Quantitave Computed Tomography (pQCT) measurement of trabecular bone mineral density.
Mature virgin female Wistar rats preferentially, 225-250 g. Strain: Hsd/Cpd:Wu, SPF-bred by Harlan, CPB, Zeist, The Netherlands.
On day 1 of the experiment the rats are weighed and distributed over the cages in order of body weight. The rat with the lowest body weight in the first cage and the heaviest rat in the last cage. Treatments are randomized over the rats per block. A block (group of 3+n treatments) consists of 1 Intact placebo rat, 1 OVX placebo rat, 1 OVX reference rat and 1 rat of each n treatments.
Sham-operation and ovariectomy are performed under ether anaesthesia. After recovery from the anaesthesia, within 24 h, vehicle, reference compound or test compound is administered once or twice daily for 4 weeks.
Trabecular bone mineral density (mg/cm^3) of the metaphyseal part of the femur was measured with a pQCT (peripheral Quantitative Computed Tomography machine; XCT 960A, Stratec, Birkenfeld, Germany) directly after autopsy on fresh tissue. Two 360° scans, which have, due to the X-ray beam, a standard thickness of 1 mm were taken. The scans have a resolution of 0.148×0.148 mm. One scan was taken at 5.5 mm from the distal end of the femur, where trabecular bone mineral density of the metaphyseal part was measured. The other scan was taken in the diaphysis at 13.5 mm from the distal end, which contains no trabecular bone. In the latter scan cortical bone mineral density and the geometrical parameters, such as cortical thickness, total bone area, outer and inner diameter, were determined. Intra- and inter-assay variation for the measurement of trabecular bone mineral density in the distal femur were about 2-3%. The XCT-960A was calibrated with a standard of hydroxyapatite embedded in acrylic plastic.
Ovariectomy causes a statistically significant decrease in trabecular bone mineral density (P≤0.05, 2 way ANOVA).
The active dose (ED50) is the dose where a mean proportional difference in trabecular bone mineral density between 40 and 60% is reached as compared to the sham and ovariectomised group.
as §1

[6] = oral administration, estrogenic activity
[7] = oral administration, progestagenic activity
[8] = oral administration, ovariectomised rats, once or twice daily for 4 weeks, 40-60% proportional difference in trabecular bone mineral density

SMILES | Relative binding affinity to the human estradiol (E) receptor [1] | Relative binding affinity to the human progesterone (P) receptor [2] | ED50 [3, 6] | ED50 [4, 7] | ED50 [5, 8] | ED50 ([3]; po) | ED50 ([4]; po) | ED50 ([5]; po)
C[C@]12CC[C@@H]3c4ccc(O)cc4CC[C@H]3[C@@H]1C[C@H]1CCCC[C@]12O [Code 37469] | 1% | 23% | > 4 mg/kg | > 2 mg/kg | > 4 mg/kg | – | – | –
C[C@]12CC[C@@H]3C4=C(CC[C@H]3[C@@H]1C[C@H]1CCCC[C@]12O)CC(=O)CC4 [Code 37516] | – | 13% | > 4 mg/kg | 1 mg/kg | > 2 mg/kg | – | – | –
C[C@]12CC[C@H]3[C@@H](CCC4=CC(=O)CC[C@@H]43)[C@@H]1C[C@H]1CCCC[C@]12O [Code 37518] | – | 115% | – | – | – | > 4 mg/kg | 0.125 mg/kg | > 2 mg/kg
C[C@@H]1Cc2cc(O)ccc2[C@H]2CC[C@@]3(C)[C@@H](C[C@H]4CCCC[C@]43O)[C@H]12 [Code 37828] | 11% | 10% | 0.192 mg/kg | – | 0.5 mg/kg | – | – | –
CC[C@H]1C[C@@]2(C)[C@@H](C[C@H]3CCCC[C@]32O)[C@@H]2CCc3cc(O)ccc3[C@@H]12 [Code 37862] | 96% | 2% | 0.032 mg/kg | – | < 0.016 mg/kg | – | – | –
C[C@H]1C[C@@H]2C[C@H]3[C@@H]4[C@H](C)Cc5cc(O)ccc5[C@H]4CC[C@]3(C)[C@]2(O)C1 [Code 37893] | 38% | 11% | 0.5 mg/kg | > 4 mg/kg | 0.5 mg/kg | – | – | –
CC[C@H]1C[C@@]2(C)[C@@H](C[C@H]3CCCC[C@]32O)[C@@H]2CCC3=CC(=O)CC[C@@H]3[C@@H]12 [Code 37943] | – | 96% | – | – | – | 0.192 mg/kg | 1 mg/kg | 0.4 mg/kg
CCC[C@@H]1C[C@@H]2C[C@H]3[C@@H]4CCc5cc(O)ccc5[C@H]4CC[C@]3(C)[C@]2(O)C1 [Code 37968] | 1% | 6% | > 1 mg/kg | > 4 mg/kg | – | – | – | –
CCC[C@H]1C[C@@H]2C[C@H]3[C@@H]4CCc5cc(O)ccc5[C@H]4CC[C@]3(C)[C@]2(O)C1 [Code 37969] | 3% | 25% | > 1 mg/kg | 4 mg/kg | > 1 mg/kg | – | – | –
CCC[C@H]1C[C@@H]2C[C@H]3[C@@H]4CCC5=CC(=O)CC[C@@H]5[C@H]4CC[C@]3(C)[C@]2(O)C1 [Code 37977] | – | 151% | – | – | – | > 4 mg/kg | 0.5 mg/kg | > 1 mg/kg
C[C@H]1C[C@@H]2C[C@H]3[C@H]4[C@H](CC[C@]3(C)[C@]2(O)C1)[C@H]1CCC(=O)C=C1C[C@H]4C [Code 38049] | – | 250% | – | – | – | > 2 mg/kg | 1 mg/kg | > 1 mg/kg
CCC[C@H]1C[C@H]2C[C@H]3[C@@H]4[C@H](C)Cc5cc(O)ccc5[C@H]4CC[C@]3(C)[C@@]2(O)C1 [Code 38079] | < 1% | 1% | > 4 mg/kg | – | – | – | – | –
CCC[C@@H]1C[C@@H]2C[C@H]3[C@@H]4CCC5=C(CCC(=O)C5)[C@H]4[C@@H](CC)C[C@]3(C)[C@]2(O)C1 [Code 38151] | – | 8% | 0.125 mg/kg | > 1 mg/kg | – | – | – | –
CCCC[C@@H]1C[C@@H]2C[C@H]3[C@@H]4CCC5=CC(=O)CC[C@@H]5[C@H]4[C@@H](C)C[C@]3(C)[C@]2(O)C1 [Code 38276, (4'R,11-beta,16-beta-17-beta)-4'-butyl-4',5',16,17-tetrahydro-17-hydroxy-11-methyl-3'H-cyclopenta[16,17]estra-4,16-dien-3-one] | – | 115% | > 0.5 mg/kg | 0.125 mg/kg | > 1 mg/kg | – | – | –
C[C@H]1C[C@@]2(C)[C@@H](C[C@H]3C[C@H](CN=[N+]=[N-])C[C@]32O)[C@@H]2CCC3=CC(=O)CC[C@@H]3[C@H]21 [Code 38322] | – | 44% | > 0.5 mg/kg | 0.063 mg/kg | > 1 mg/kg | – | – | –
CCC[C@@H]1Cc2cc(O)ccc2[C@H]2CC[C@@]3(C)[C@@H](C[C@H]4C[C@H](C)C[C@]43O)[C@H]12 [Code 38481, (4'S,7-alpha,16-beta, 17-beta)-3',4',5',16-tetrahydro-4'-methyl-7-propyl-17H-cyclopenta[16,17]estra-1,3,5(10)-trien-3,17-diol] | 23% | 6% | 0.064 mg/kg | > 4 mg/kg | 0.125 mg/kg | – | – | –
CCC[C@@H]1Cc2cc(O)ccc2[C@H]2CC[C@@]3(C)[C@@H](C[C@@H]4C[C@@H](C)C[C@@]43O)[C@H]12 [Code 38513] | 0.2% | – | 2 mg/kg | > 0.125 mg/kg | – | – | – | –
CCC[C@@H]1Cc2cc(O)ccc2[C@H]2CC[C@@]3(C)[C@@H](C[C@H]4C[C@@H](C)C[C@]43O)[C@H]12 [Code 38514] | 11% | 4% | 0.024 mg/kg | > 2 mg/kg | < 0.032 mg/kg | – | – | –
C[C@H]1C[C@@H]2C[C@H]3[C@@H]4CCC5=CC(=O)CC[C@@H]5[C@H]4CC[C@]3(C)[C@]2(O)C1 [Code 38541] | – | 58% | – | – | – | > 0.5 mg/kg | 0.125 mg/kg | > 1 mg/kg
CCC[C@@H]1CC2=CC(=O)CC[C@@H]2[C@H]2CC[C@@]3(C)[C@@H](C[C@H]4C[C@@H](C)C[C@]43O)[C@H]12 [Code 38550] | – | 36% | 0.125 mg/kg | > 0.125 mg/kg | 0.125 mg/kg | – | – | –
CCC[C@H]1C[C@@H]2C[C@H]3[C@@H]4CCC5=CC(=O)CC[C@@H]5[C@H]4[C@@H](CC)C[C@]3(C)[C@]2(O)C1 [Code 38577] | – | 139% | 0.192 mg/kg | > 0.5 mg/kg | 0.25 mg/kg | – | – | –
CC[C@H]1C[C@@H]2C[C@H]3[C@@H]4CCC5=CC(=O)CC[C@@H]5[C@H]4[C@@H](CC)C[C@]3(C)[C@]2(O)C1 [Code 38610] | – | 0.3% | 0.032 mg/kg | > 0.125 mg/kg | 0.125 mg/kg | – | – | –
